Values of other authors in patent publication US5753436A, “Chemiluminescent energy transfer assays” (Tropix, Inc., priority 1995, dated 1998).

Tested on: alkaline phosphatase

SMILES: O=P(O)(O)Oc1ccc2nc(-c3nc4ccccc4s3)sc2c1 [AttoPhos]
- Km: 30 µM
- turnover number (2.40M DEA (diethanolamine) pH 9.0, 0.23 mM MgCl2, 0.005% NaN by weight): 85,400 molecules of AttoPhos per minu
